Patent publication US20080153872A1, “Bis-(Coumarin) Compounds With Anti-Inflammatory Activity” (priority 2005, published 2008)

How the values were obtained:
IFNγ = assay: Inhibition of IFNγ production by ConA stimulated mouse splenocytes; assay type: cell-based; conditions: 25 μM
Procedure: (§1) Spleen cell suspension was obtained from BALB/c mice and lymphocytes separated by gradient density centrifugation on Histopaque 1.083 on 400 g for 30 minutes. They were washed once in medium, counted and their number adjusted as 3×10^5/200 μL/well in 96 flat bottomed culture plate in RPMI supplemented with 10% fetal bovine serum. Cells were stimulated on cytokine production by adding concanavalinA (ConA) at 5 μg/mL final concentration. Unstimulated cells were cultured in medium alone. Stock solution was prepared out of testing compounds as 10 mM in DMSO. Final concentrations made in cell culture medium were tested when they had been added together with ConA. After 72 hours incubation period cell culture supernatants were collected. In each sample IL-4, IL-5, IL-10 and IFNγ were detected and quantified using enzyme linked immunosorbent assay (ELISA) specific for pointed cytokines (R&D Systems).
(§2) To calculate results, standard curve was made out of measured OD values for recombinant protein in known concentrations. Cytokine content in unknown samples was calculated out of OD values extrapolated from the standard curve.
(§3) Percentage of inhibition is calculated using formula:
(§4) % Inhibition=(1−cytokine concentration of sample/cytokine concentration of positive control)×100.

IL-5 = assay: Inhibition of IL-5 production by ConA stimulated mouse splenocytes; assay type: cell-based; conditions: 25 μM
Procedure: as §1, §2, §3, §4

CD1 mice = assay: PMA induced ear oedema in CD1 mice; assay type: in vivo, mouse; conditions: topical, single dose of 250 or 100 μg/15 μL/ear; statistically significant vs positive control
Procedure: Male CD1 mice (Iffa Credo, France) weighing ˜35-40 g were randomly grouped (n=8 in vehicle treated test group, dexamethasone treated control group as well as in groups treated with compounds to be assayed). Test compounds, dexamethasone as well as vehicle (Trans-phase Delivery System, containing benzyl alcohol 10%, acetone 40% and isopropanol 50%) (all from Kemika, Croatia), were administered topically to the internal surface of the left ear thirty minutes prior to administration of phorbol 12-myristate 13-acetate (PMA) (Alexis biochemicals, USA). Test compounds were administered at a single dose of 250 or 100 μg/15 μL/ear and dexamethasone at a single dose of 50 μg/15 μL/ear. Thirty minutes later, 0.01% PMA solution in acetone was applied topically to the same area of each animal in a volume of 12 μL/ear. During the treatment and challenge, animals were anaesthetized by using inhalation anaesthesia. Six hours after the challenge, animals were euthanized by asphyxiation in 100% CO2 atmosphere. For assessing the auricular oedema, 8 mm discs were cut out of left and right auricular pinna and weighed. The degree of oedema was calculated by subtracting the weight of 8 mm disc of the untreated ear from that of the treated contralateral ear.

IL-10 = assay: Inhibition of IL-10 production by ConA stimulated mouse splenocytes; assay type: cell-based; conditions: 25 μM
Procedure: as §1, §2, §3, §4

IL-1β = assay: Inhibition of IL-1β production by LPS stimulated human peripheral blood mononuclear cells (hPBMCs); assay type: cell-based; conditions: 25 μM
Procedure: Blood was taken from healthy volunteer donor, diluted with the same volume of saline and was separated by gradient density centrifugation on FicollPaque™ Plus on 400 g for 30 minutes. PBMCs were collected, washed in RPMI, counted and number per mL was adjusted.
Collected PBMCs were cultured into 96 well tissue culture plate, flat bottom as 35.000 cells/well/200 uL in RPMI supplemented with 10% fetal bovine serum, prior inactivated on 56° C. for 30 minutes. Cells were stimulated on IL-1 production by adding LPS (serotype 0111:B4, Sigma, cat# L-2630), at final concentration 1 ng/mL. Unstimulated cells were cultured in medium alone. Stock solution was prepared out of testing compounds as 10 mM in DMSO. Final concentrations made in cell culture medium were tested when they had been added together with LPS. […] Negative and positive control samples were prepared in sextaplicates and samples with tested compound concentrations in triplicates. After overnight incubation in humidified atmosphere containing 5% CO2, supernatants were collected.
Harvested cell culture supernatants were quantified for IL-1β content by enzyme linked immunosorbent assay (ELISA).
as §3, §4

IL-4 = assay: Inhibition of IL-4 production by ConA stimulated mouse splenocytes; assay type: cell-based; conditions: 25 μM
Procedure: as §1, §2, §3, §4

Balb/cJ mice = assay: LPS induced pulmonary neutrophilia in mice; assay type: in vivo, mouse; conditions: LPS challenged mice; i.n., i.p. or per os
Procedure: Male Balb/cJ mice (Iffa Credo, France) weighing ˜25 g are randomly grouped into a negative control group, positive control group and groups treated with compounds to be assayed). Test compounds, as well as vehicle (DMSO+0.5% methyl-cellulose) (all from Sigma), are administered i.n., ip. or per os two hours prior to administration of lipopolysaccharide (LPS) (E. coli, serotype 0111:B4, Sigma) or two hours prior and two hours after administration of LPS. Test compounds are administered at a single dose (two hours prior the challenge) or divided into two doses (two hours prior and two hours after the challenge). LPS solution in phosphate buffered saline (PBS) (Sigma) is administered intranasally in volume of 60 μL at concentration of 33,33 μg/mL, to all experimental groups except the negative control group, which received the same volume (60 μL) of vehicle PBS. During the challenge, animals were anaesthetized by using intraperitoneal anaesthesia. Animals are euthanized by i.p. anesthesia overdose approximately 24 hours after application of LPS to obtain bronchoalveolar lavage fluid (BALF), which is used to determine total protein concentration as well as concentrations of cytokines, such as IL-1β and TNF-α, absolute number of cells, and percentage of neutrophils in BALF. Bronchoalveolar lavage (BAL) is performed by infusing 1 mL of PBS divided into 3 separate volumes (0.4, 0.3 and 0.3 ml) through trachea into the lungs. The fluid is immediately withdrawn and the cell suspension stored into previously prepared 1.5 mL Eppendorf tube. Bronchoalveolar lavage fluid (BALF) is then centrifuged at […] for 5 min (4° C.). Cells are resuspended in 700 μL of PBS. To prepare cytospins, 320 μL of suspension is centrifuged at 250 rpm for 10 min (Cytospin-3, Shandon Instruments). Cells are stained with Dif-Quik (Dade Behring) to determine percentage of neutrophils by counting of at least 200 cells. The remaining resuspended cells are used for total cell count in BALF analysis (Sysmex SF 3000). […] Accumulation of granulocytes and mononuclear cells in peribronclhial (PB) and perivascular (PV) lung tissue areas and alveolar spaces is monitored.
Results can be expressed as (I) decrease of absolute cell number per mL in BALF, (II) decrease of number of neutrophils per mL in BALF, (III) reduction of relative number (percentage) of neutrophils in BALF, (IV) reduction of cytokine concentrations in BALF, as well as (V) suppression of accumulation of granulocytes and mononuclear cells in peribronchial (PB) and perivascular (PV) lung tissue areas and in alveolar spaces by pathohistological scoring of treated animals compared to positive control (LPS stimulated, but untreated animals).

Balb/C mice = assay: Ovalbumin induced pulmonary eosinophilia in mice; assay type: in vivo, mouse; conditions: OVA sensitized and challenged mice; i.n., i.p. or per os
Procedure: Male Balb/C mice with a body weight of 20-25 g are randomly divided into groups, and sensitized by an i.p. injection of ovalbumin (OVA, Sigma) on day zero and day fourteen. On the twentieth day, the mice are subjected to a challenge test by i.n. (intranasal) application of OVA (positive control or test groups) or PBS (negative control). The compounds are administered daily i.n., i.p. or per os in different doses starting 2 days before the challenge and up to the completion of the test. Compounds are administered as suspension either in PBS, methyl cellulose or carboxymethyl cellulose with addition od DMSO (up to 5% of the total volume). 48 hours after i.n. application of OVA, the animals are then anaesthetized to obtain bronchoalveolar lavage fluid (BALF), which is used to determine total protein concentration as well as concentrations of cytokines such as IL-1β and TNF-α, absolute number of cells, and percentage of eosinophils in BALF. Bronchoalveolar lavage (BAL) is performed by infusing 1 mL of PBS divided into 3 separate volumes (0.4, 0.3 and 0.3 ml) through trachea into the lungs. The fluid is immediately withdrawn and the cell suspension stored into previously prepared 1.5 mL Eppendorf tube. Bronchoalveolar lavage fluid (BALF) is then centrifuged at […] for 5 min (4° C.). Cells are resuspended in 700 μL of PBS. To prepare cytospins, 320 μL of suspension is centrifuged at 250 rpm for 10 min (Cytospin-3, Shandon Instruments). Cells are stained with Dif-Quik (Dade Behring) to determine percentage of eosinophils by counting of at least 100 cells. The remaining resuspended cells are used for total cell count in BALF analysis (Sysmex SF 3000). Finally, lungs are sampled and stored into 10% formalin for pathohistological evaluation of eosinophil and mononuclear infiltrate. Accumulation of eosinophils and mononuclear cells in peribronchial (PB) and perivascular (PV) lung tissue areas and in alveolar spaces is monitored.
Results can be expressed as (I) decrease of absolute cell number per mL in BALF, (II) decrease of number of eosinophils per mL in BALF, (III) reduction of relative number (percentage) of eosinophils in BALF, (IV) reduction of cytokine concentrations in BALF, as well as (V) suppression of accumulation of eosinophils and mononuclear cells in peribronchial (PB) and perivascular (PV) lung tissue areas and in alveolar spaces by pathohistological scoring of treated animals compared to positive control (OVA stimulated, but untreated animals).
Fluticasone and beclomethasone are used as standard anti-inflammatory substances, and compared for ability to inhibit eosinophilia to the negative and positive controls.

RBL-2H3 cell line = assay: IgE-induced RBL-2H3 mast cell degranulation (Fcε receptor type I); assay type: cell-based, rat; conditions: concentrations from 200-50 μM; RBL-2H3 cells; stimulus not specified
Procedure: RBL-2H3 cell line of rat basophilic leukaemia (ATCC) was used for the investigation of inhibition of degranulation induced by the activation of Fcε receptor type I or calcium ionophors. RBL-2H3 cell line was cultivated in DMEM medium (Invitrogen Cat. No. 31966-021) with 10% of phoetal calf serum (Invitrogen Corporation) at 37° C., 5% CO2, 90% relative humidity. Cells were seeded in the same medium into 24-well plates, 50000 per well, and left to reach 80-90% of confluence.
Dilutions of compounds were prepared in DMEM medium without phenol red (Invitrogen Corporation) in concentrations from 200 μM to 1 μM. The medium was removed from the cells and the diluted of compounds were added to the wells with the exception of the positive and the negative control where pure DMEM medium was added. Subsequently,
1. for the IgE-induced degranulation by Fcs receptor type I, a solution of SPE-1 (dinitrophenyl specific IgE) antibodies (Sigma) and dinitrophenylalbumin (Sigma), both in a final concentration of 0.5 μg/mL,
In the case of the negative control wells, pure DMEM medium was added. The cells were incubated for one hour at 37° C., 5% CO2, and 90% relative humidity. Each dilution as well as the positive and the negative controls were performed in triplicate. The supernatant (50 μL) was transferred in duplicate to a 96-well plate. […] The absorbance was measured at […]. […]

Row | Compound | inhibition of IFNγ production (IFNγ) | inhibition of IL-5 production (IL-5) | suppression of ear oedema (CD1 mice) | inhibition of IL-10 production (IL-10) | inhibition of IL-1β production (IL-1β) | inhibition of IL-4 production (IL-4) | reduction of percentage of neutrophils and/or their total number in BALF and/or by histological scoring (Balb/cJ mice) | reduction of percentage of eosinophils and/or their total number in BALF and/or by histological scoring (Balb/C mice) | inhibition of degranulation (standard) (RBL-2H3 cell line)
1 | CCc1ccc2oc(=O)c(C(c3ccc(O)cc3)c3c(O)c4cc(CC)ccc4oc3=O)c(O)c2c1 [Example 244] | significantly inhibited | significantly inhibited | considered active | significantly inhibited | significantly inhibited | significantly inhibited |  |  | 
2 | Cc1cc2oc(=O)c(C(c3c(O)c4cc(C)c(C)cc4oc3=O)C(C)O)c(O)c2cc1C (stereo not shown) [Example 363] |  |  | considered active |  |  |  | statistically significant reduction | statistically significant reduction | 
3 | CN1CCC(=C2c3ccccc3CC(=O)c3sccc32)CC1 [Ketotifen, ketotifen] |  |  |  |  |  |  |  |  | significantly inhibits degranulation
